According to paper PMC6125496 (Antimicrobial Agents and Chemotherapy, 2018):
In brackets after ≈: the same amount, converted by molar mass.

Tests used:
[1] = system: Acinetobacter baumannii ATCC 19606; experiment: microbe, parasite or virus in culture; settings: Acinetobacter baumannii, ATCC19606
From the text: (§1) Reference strains are from the German Collection of Microorganisms and Cell Cultures (DSMZ), the American Type Culture Collection (ATCC), the National Collection of Type Cultures (NCTC), and the Medical and Molecular Microbiology, Faculty of Science and Medicine, University of Fribourg, Switzerland.

[2] = system: Ciprofloxacin-resistant E. coli (19); experiment: microbe, parasite or virus in culture; settings: Escherichia coli
From the text: as §1

[3] = system: Ciprofloxacin-resistant K. pneumoniae (27); experiment: microbe, parasite or virus in culture; settings: Klebsiella pneumoniae
From the text: as §1

[4] = system: Citrobacter freundii (16); experiment: microbe, parasite or virus in culture; settings: Citrobacter freundii
From the text: as §1

[5] = system: Citrobacter freundii DSM 30039; experiment: microbe, parasite or virus in culture; settings: Citrobacter freundii, DSM30039
From the text: as §1

[6] = system: Citrobacter kozeri DSM 4595; experiment: microbe, parasite or virus in culture; settings: Citrobacter, DSM4595
From the text: as §1

[7] = system: Enterobacter aerogenes DSM 30053; experiment: microbe, parasite or virus in culture; settings: Klebsiella aerogenes, DSM30053
From the text: as §1

[8] = system: Enterobacter cloacae (13); experiment: microbe, parasite or virus in culture; settings: Enterobacter cloacae
From the text: as §1

[9] = system: Enterobacter cloacae DSM 14563; experiment: microbe, parasite or virus in culture; settings: Enterobacter cloacae, DSM14563
From the text: as §1

[10] = system: Enterococcus faecalis DSM 2570; experiment: microbe, parasite or virus in culture; settings: Enterococcus faecalis, DSM2570
From the text: as §1

[11] = system: Enterococcus faecium DSM 20477; experiment: microbe, parasite or virus in culture; settings: Enterococcus faecium, DSM20477
From the text: as §1

Escherichia coli (101) = experiment: microbe, parasite or virus in culture; settings: Escherichia coli
From the text: as §1

[12] = system: Escherichia coli ATCC 25922; experiment: microbe, parasite or virus in culture; settings: Escherichia coli, ATCC25922
From the text: as §1

[13] = system: Escherichia coli BAA-2469; experiment: microbe, parasite or virus in culture; settings: Escherichia coli, BAA2469, Ambler class B carbapenemase; NDM-1
From the text: as §1

[14] = system: Escherichia coli BAA-2471; experiment: microbe, parasite or virus in culture; settings: Escherichia coli, BAA2471
From the text: as §1

[15] = system: Gentamicin-resistant K. pneumoniae (16); experiment: microbe, parasite or virus in culture; settings: Klebsiella pneumoniae
From the text: as §1

[16] = system: Klebsiella pneumoniae (56); experiment: microbe, parasite or virus in culture; settings: Klebsiella pneumoniae
From the text: as §1

[17] = system: Klebsiella pneumoniae ATCC 43816; experiment: microbe, parasite or virus in culture; settings: Klebsiella pneumoniae, ATCC43816
From the text: as §1

[18] = system: Klebsiella pneumoniae ATCC BAA-1904; experiment: microbe, parasite or virus in culture; settings: Klebsiella pneumoniae, ATCCBAA1904
From the text: as §1

[19] = system: Klebsiella pneumoniae ATCC BAA-1905; experiment: microbe, parasite or virus in culture; settings: Klebsiella pneumoniae, ATCCBAA1905
From the text: as §1

[20] = system: Klebsiella pneumoniae NCTC 13439; experiment: microbe, parasite or virus in culture; settings: Klebsiella pneumoniae, NCTC13439
From the text: as §1

[21] = system: Klebsiella pneumoniae NCTC 13442; experiment: microbe, parasite or virus in culture; settings: Klebsiella pneumoniae, NCTC13442
From the text: as §1

[22] = system: Klebsiella pneumoniae NCTC 13443; experiment: microbe, parasite or virus in culture; settings: Klebsiella pneumoniae, NCTC13443
From the text: as §1

[23] = system: Pseudomonas aeruginosa DSM 1117; experiment: microbe, parasite or virus in culture; settings: Pseudomonas aeruginosa, DSM1117
From the text: as §1

[24] = system: Serratia marcescens DSM 17174; experiment: microbe, parasite or virus in culture; settings: Serratia marcescens, DSM17174
From the text: as §1

[25] = system: Staphylococcus aureus ATCC 29213; experiment: microbe, parasite or virus in culture; settings: Staphylococcus aureus, ATCC29213
From the text: as §1

[26] = system: Staphylococcus epidermidis ATCC 12228; experiment: microbe, parasite or virus in culture; settings: Staphylococcus epidermidis, ATCC12228
From the text: as §1

[27] = system: Stenotrophomonas maltophilia ATCC 13637; experiment: microbe, parasite or virus in culture; settings: Stenotrophomonas maltophilia, ATCC13637
From the text: as §1

[28] = system: Streptococcus pneumoniae DSM 2134; experiment: microbe, parasite or virus in culture; settings: Streptococcus pneumoniae, DSM2134
From the text: as §1

[29] = system: human renal proximal tubular epithelial cells (HRPTEpiC); experiment: Multiplexed HRPTEpiC cytotoxicity assay (cell viability, KIM-1, HSP27)
Protocol: The multiplexed cytotoxicity assay on human renal proximal tubule epithelial cells (HRPTEpiC) was conducted by Eurofins Panlabs (Eurofins Panlabs, Inc., St. Charles, MO) by using an image-based high content analysis (HCA) technique where cells were fixed and stained with nuclear dye to visualize nuclei and fluorescently labeled antibodies to detect drug-induced cellular injury and cellular stress arising from oxidative and chemical stress. Cells were seeded into 384-well plates and grown in RPMI 1640, 10% fetal bovine serum (FBS), 2 mM L-alanyl-L-glutamine, and 1 mM sodium pyruvate in a humidified atmosphere of 5% CO2 at 37°C. […] Compounds were serially diluted 3.16-fold and assayed over 10 concentrations in a final assay concentration of 0.5% dimethyl sulfoxide (DMSO) from 100 μM to 3.7 nM. At the same time, a time zero untreated cell plate was generated. After a 48-h incubation period, cells were fixed and stained with fluorescently labeled antibodies and nuclear dyed to allow visualization of nuclei, injured cells, and stressed cells. Injured cells were detected using a KIM-1 (kidney injury molecule 1) antibody. Stressed cells were detected using an anti-HSP27 (heat shock protein 27) antibody. Cell proliferation was measured by the signal intensity of the incorporated nuclear dye. The cell proliferation assay output was referred to as the relative cell count. To determine the cell proliferation endpoint, the cell proliferation data output was transformed to percentage of control (POC) using the following formula: POC = relative cell count in compound wells/relative cell count in vehicle wells × 100. The signal intensity of the incorporated cellular stress and injury measurements were normalized with the relative cell count from each well. Automated fluorescence microscopy was carried out using a Molecular Devices ImageXpress micro-imager, and images were collected with a 4× objective.

Structure (SMILES)	MIC [1] [µg/mL]	MIC [5] [µg/mL]	MIC [6] [µg/mL]	MIC [7] [µg/mL]	MIC [9] [µg/mL]	MIC [10] [µg/mL]	MIC [11] [µg/mL]	MIC [12] [µg/mL]	MIC [13] [µg/mL]	MIC [14] [µg/mL]	MIC [17] [µg/mL]	MIC [18] [µg/mL]	MIC [19] [µg/mL]	MIC [20] [µg/mL]	MIC [21] [µg/mL]	MIC [22] [µg/mL]	MIC [23] [µg/mL]	MIC [24] [µg/mL]	MIC [25] [µg/mL]	MIC [26] [µg/mL]	further results
CNC(C)C1CCC(N)C(OC2C(N)CC(N)C(OC3OCC(C)(O)C(NC)C3O)C2O)O1 (stereo not shown) [GEN, gentamicin]	16 (≈ 33.5 µM)	0.5 (≈ 1.05 µM)	0.25 (≈ 0.523 µM)	0.25 (≈ 0.523 µM)	0.5 (≈ 1.05 µM)	16 (≈ 33.5 µM)	8 (≈ 16.8 µM)	1 (≈ 2.09 µM)	> 64	> 64	0.25 (≈ 0.523 µM)	16 (≈ 33.5 µM)	32 (≈ 67 µM)	1 (≈ 2.09 µM)	0.25 (≈ 0.523 µM)	> 64	1 (≈ 2.09 µM)	0.5 (≈ 1.05 µM)	0.5 (≈ 1.05 µM)	≤ 0.125	MIC50 [2]: 0.5 µg/mL (≈ 1.05 µM); MIC90 [2]: > 32 µg/mL; MIC50 [3]: 32 µg/mL (≈ 67 µM); MIC90 [3]: > 32 µg/mL; MIC50 [4]: 1 µg/mL (≈ 2.09 µM); MIC90 [4]: > 32 µg/mL; MIC50 [8]: 32 µg/mL (≈ 67 µM); MIC90 [8]: > 32 µg/mL; MIC50 (Escherichia coli (101)): 1 µg/mL (≈ 2.09 µM); MIC90 (Escherichia coli (101)): 2 µg/mL (≈ 4.19 µM); MIC50 [15]: > 32 µg/mL; MIC90 [15]: > 32 µg/mL; MIC50 [16]: 1 µg/mL (≈ 2.09 µM); MIC90 [16]: > 32 µg/mL; MIC [27]: 4 µg/mL (≈ 8.38 µM); MIC [28]: 8 µg/mL (≈ 16.8 µM); cytotoxicity to HRPTEpiC (in words) ([29]; concentrations up to 100 μM, 48-h incubation): not cytotoxic; concentration inducing a significant (5-fold) increase of HSP27 level ([29]; tested up to 100 μM): 22.4 µM; concentration inducing a significant (5-fold) increase of KIM-1 level ([29]; tested up to 100 μM): > 100 µM
C[C@@H](O)[C@H]1C(=O)N2C(C(=O)O)=C(SCCN=CN)C[C@H]12 [IPM, imipenem]	0.5 (≈ 1.67 µM)	1 (≈ 3.34 µM)	4 (≈ 13.4 µM)	2 (≈ 6.68 µM)	1 (≈ 3.34 µM)	1 (≈ 3.34 µM)	4 (≈ 13.4 µM)	0.25 (≈ 0.835 µM)	32 (≈ 107 µM)	> 64	1 (≈ 3.34 µM)	32 (≈ 107 µM)	> 64	32 (≈ 107 µM)	16 (≈ 53.4 µM)	> 64	2 (≈ 6.68 µM)	2 (≈ 6.68 µM)	≤ 0.125	≤ 0.125	MIC [27]: > 64 µg/mL; MIC [28]: ≤ 0.125 µg/mL
